Results published in US20260217692A1 (Ascentage Pharma (Suzhou) Co., Ltd., priority 2023, published 2026).
“And” between values parts separate entries of the source, which are not always exact repeats. Equal entries are not always repeated. Structures can show the parent of a compound that is named as a salt. Blank lines part the entries; values can stand above or below the molecule they belong to.

Tests used:
[1] = Dynamic vapor sorption (DVS) hygroscopicity test; assay type: physicochemical; details: for hygroscopic weight gain (DVS curve): 25° C. and 80% RH
Excerpt: In the present disclosure, the DVS test parameters are set as follows: [table]

[2] = Stability of crystal forms under stability test conditions (appearance, XRPD, HPLC); assay type: physicochemical; details: for Total impurities: HPLC
Protocol: The samples were placed under the stability conditions shown in the following table, sampling was performed at the corresponding time points, and the samples were subjected to appearance and XRPD tests. […] The stability results obtained are recorded in the following table. […] The samples were placed under the stability test conditions shown in the following table, sampling was performed at different time points, and the samples were subjected to the XRPD test. […] The samples were placed in an open state under the stability test conditions of 40° C./75% RH and 90% RH; and the samples were placed in a closed state at 60° C. in a light box (the test samples in the dark were placed in the same manner as the illumination test samples, and the treatment was performed in the dark). Sampling was performed at different time points, and the samples were subjected to the XRPD test. […] The samples were placed under the stability conditions shown in the following table, sampling was performed at the corresponding time points, and the samples were subjected to appearance and XRPD tests. […] The stability results obtained are recorded in the following table.

preclinical tumor model = preclinical tumor model studies; cited from earlier work
[3] = in vivo; cited from earlier work
[4] = test system: multiple xenograft tumor models; details: cited from earlier work
[5] = test system: EGFRT790M-mutant NSCLC xenograft tumor models; details: cited from earlier work
[6] = Polymorph screening test, suspension method (crystal form by XRPD after stirring in solvent); assay type: physicochemical
Protocol: (or 50° C.) for 3 days in the dark and centrifuged to remove the supernatant; the resulting precipitate was dried under vacuum (25° C., −0.1 MPa); and the resulting solid was collected and subjected to the XRPD test. The results are as follows:
(or 50° C./80° C.) for 3 days in the dark and centrifuged to remove the supernatant; and the resulting precipitate was dried under vacuum (25° C., −0.1 MPa).
(or 50° C.) for 3 days in the dark and centrifuged to remove the supernatant; and the resulting precipitate was dried under vacuum (25° C., −0.1 MPa).

[7] = XRPD of residual solids in solubility test in biological media; assay type: physicochemical; details: Water; 37° C.
[8] = Solubility in biological media at 37° C. (HPLC, pH)
[9] = Illumination (1 ICH), 5 d and 10 d
[10] = 0 d, listed as Crystal form D of the compound represented by formula I

Molecule: Cc1cc(Nc2ncc(Cl)c(Nc3ccccc3S(=O)(=O)C(C)C)n2)c(OC(C)C)cc1C1=CCN(C2CCOCC2)CC1.Cl
hygroscopic weight gain (DVS curve) [1]: 0.15%
Appearance ([2]; 0 d): Pale yellow powder
Total impurities ([2]; 0 d): 0.10%
Total impurities ([2]; 40° C./75% RH, 5 d): 0.18%
Total impurities ([2]; 40° C./75% RH, 10 d): 0.53%
Appearance ([2]; 40° C./75% RH, 30 d): Color deepening
Total impurities ([2]; 40° C./75% RH, 30 d): 1.09%
Total impurities ([2]; 60° C., 5 d): 0.15%
Total impurities ([2]; 60° C., 10 d): 0.23%
Total impurities ([2]; 60° C., 30 d): 0.21%
Total impurities ([2]; 90% RH, 5 d): 0.17%
Total impurities ([2]; 90% RH, 10 d): 0.28%
Appearance ([2]; 90% RH, 30 d): Color deepening
Total impurities ([2]; 90% RH, 30 d): 0.41%
Total impurities ([2]; Illumination (1 ICH), 5 d): 0.39%
Appearance [2, 9]: Color deepening
Total impurities ([2]; Illumination (1 ICH), 10 d): 0.51%
Total impurities ([2]; In the dark, 5 d): 0.07%
Total impurities ([2]; In the dark, 10 d): 0.16%

Molecule: Cc1cc(Nc2ncc(Cl)c(Nc3ccccc3S(=O)(=O)C(C)C)n2)c(OC(C)C)cc1C1=CCN(C2CCOCC2)CC1 [APG-2449]
resistance developed by the first-generation ALK inhibitor (preclinical tumor model): can overcome resistance
oral bioavailability [3]: high oral bioavailability
anti-tumor activity [4]: exhibits anti-tumor activity
effect in combination with EGFR inhibitors (particularly AZD9291/osimertinib) [5]: synergistic effect

Molecule: Maleate
XRPD results of residual solids [7]: Crystal form A
Solubility ([8]; FaSSIF-V2, 2 h): 20 µg/mL
Solubility ([8]; FaSSIF-V2, 24 h): <LOQ
Solubility ([8]; FeSSIF-V2, 2 h): 220 µg/mL
Solubility ([8]; FeSSIF-V2, 24 h): 220 µg/mL
Solubility ([8]; SGF, 2 h): 1390 µg/mL
Solubility ([8]; SGF, 24 h): 1920 µg/mL
Solubility ([8]; Water, 2 h): 20 µg/mL
Solubility ([8]; Water, 24 h): 20 µg/mL

Further lines, results first:

hygroscopic weight gain (DVS curve) [1]: 0.14±0.005% and 0.14%
XRPD ([2]; 0 d): No significant change
Total impurities [2, 10]: 0.14%
Appearance [2, 10]: No significant change
Total impurities ([2]; 25° C./60% RH, 1 M): 0.17%
Total impurities ([2]; 25° C./60% RH, 10 d): 0.14%
Appearance ([2]; 25° C./60% RH, 10 d and 1 M): No significant change
XRPD ([2]; 25° C./60% RH, 10 d and 1 M): No significant change
Total impurities ([2]; 40° C./75% RH, 1 M, listed as Crystal form D of the compound represented by formula I): 0.17%
Total impurities ([2]; 40° C./75% RH, 10 d, listed as Crystal form D of the compound represented by formula I): 0.17%
XRPD ([2]; 40° C./75% RH, 10 d and 1 M): No significant change
Appearance ([2]; 40° C./75% RH, 10 d and 1 M, listed as Crystal form D of the compound represented by formula I): No significant change
Total impurities ([2]; 60° C., 1 M, listed as Crystal form D of the compound represented by formula I): 0.20%
Total impurities ([2]; 60° C., 10 d, listed as Crystal form D of the compound represented by formula I): 0.17%
XRPD ([2]; 60° C., 10 d and 1 M): No significant change
Appearance ([2]; 60° C., 10 d and 1 M, listed as Crystal form D of the compound represented by formula I): No significant change
Total impurities ([2]; 90% RH, 1 M, listed as Crystal form D of the compound represented by formula I): 0.17%
Total impurities ([2]; 90% RH, 10 d, listed as Crystal form D of the compound represented by formula I): 0.17%
XRPD ([2]; 90% RH, 10 d and 1 M): No significant change
Appearance ([2]; 90% RH, 10 d and 1 M, listed as Crystal form D of the compound represented by formula I): No significant change
Total impurities ([2]; Illumination, 5 d, listed as Crystal form D of the compound represented by formula I): 0.17%
Appearance ([2]; Illumination, 5 d and 10 d): Color deepening
XRPD ([2]; Illumination, 5 d and 10 d): No significant change
Total impurities ([2]; Illumination, 10 d, listed as Crystal form D of the compound represented by formula I): 2.43%
Total impurities ([2]; In the dark, 5 d, listed as Crystal form D of the compound represented by formula I): 0.17%
XRPD ([2]; In the dark, 5 d and 10 d): No significant change
Appearance ([2]; In the dark, 5 d and 10 d, listed as Crystal form D of the compound represented by formula I): No significant change
Total impurities ([2]; In the dark, 10 d, listed as Crystal form D of the compound represented by formula I): 0.14%
Molecule: Cc1cc(Nc2ncc(Cl)c(Nc3ccccc3S(=O)(=O)C(C)C)n2)c(OC(C)C)cc1C1=CCN(C2CCOCC2)CC1 [crystal form D]

stability of crystal form in solvent, suspension method ([6]; ethanol, isopropanol, acetone, ethyl acetate, isopropyl acetate, methyl tert-butyl ether, dichloromethane, tetrahydrofuran, toluene, n-heptane, dioxane, methyl acetate, 2-methyltetrahydrofuran, cyclohexane, n-hexane, methyl ethyl ketone, or methyl isobutyl ketone): relatively good stability
crystal form when stirred in solvent ([6]; same solvents as in b585 at 25-50° C.): remained stable
hygroscopic weight gain (DVS curve) [1]: 0.11±0.005% and 0.11%
hygroscopicity (DVS result in words) ([1]; 80% RH): no hygroscopicity
crystal form before and after the hygroscopic test ([1]; DVS): did not change
Appearance ([2]; 0 d): Pale yellow powder
Crystal form (XRPD) ([2]; 0 d): Maleate crystal form A
Total impurities ([2]; 0 d): 0.12%
Crystal form (XRPD) ([2]; 40° C./75% RH, 5 d, 10 d and 30 d): Maleate crystal form A
Total impurities ([2]; 40° C./75% RH, 5 d): 0.16%
Total impurities ([2]; 40° C./75% RH, 10 d): 0.14%
Total impurities ([2]; 40° C./75% RH, 30 d): 0.29%
Crystal form (XRPD) ([2]; 60° C., 5 d, 10 d and 30 d): Maleate crystal form A
Total impurities ([2]; 60° C., 5 d): 0.16%
Total impurities ([2]; 60° C., 10 d): 0.21%
Total impurities ([2]; 60° C., 30 d): 0.16%
Crystal form (XRPD) ([2]; 90% RH, 5 d, 10 d and 30 d): Maleate crystal form A
Total impurities ([2]; 90% RH, 5 d): 0.14%
Total impurities ([2]; 90% RH, 10 d): 0.25%
Total impurities ([2]; 90% RH, 30 d): 0.26%
Total impurities ([2]; Illumination (1 ICH), 5 d): 0.26%
Appearance [2, 9]: Color deepening
Crystal form (XRPD) [2, 9]: Maleate crystal form A
Total impurities ([2]; Illumination (1 ICH), 10 d): 0.65%
Total impurities ([2]; In the dark, 5 d): 0.12%
Crystal form (XRPD) ([2]; In the dark, 5 d and 10 d): Maleate crystal form A
Total impurities ([2]; In the dark, 10 d): 0.18%
Molecule: Cc1cc(Nc2ncc(Cl)c(Nc3ccccc3S(=O)(=O)C(C)C)n2)c(OC(C)C)cc1C1=CCN(C2CCOCC2)CC1 [one equivalent of maleate crystal form A]

stability of crystal form in solvents, succinate polymorph screening test ([6]; in solvents): relatively good stability
crystal form when stirred in solvent ([6]; methanol, ethanol, acetonitrile, acetone, ethyl acetate, dichloromethane, water, n-heptane, dioxane, or mixed solvent of methanol, acetonitrile, or acetone with water, 40° C.): remained stable
hygroscopic weight gain (DVS curve) [1]: 0.19±0.005% and 0.19%
Total impurities ([2]; 0 d): 0.73%
Total impurities ([2]; 40° C./75% RH, 1 M): 0.74%
Total impurities ([2]; 40° C./75% RH, 10 d): 0.74%
Total impurities ([2]; 60° C., 1 M): 0.71%
Total impurities ([2]; 60° C., 10 d): 0.69%
Total impurities ([2]; 90% RH, 1 M): 0.96%
Total impurities ([2]; 90% RH, 10 d): 0.73%
Total impurities ([2]; Illumination, 5 d): 0.86%
Appearance ([2]; Illumination, 5 d and 10 d): Color deepening
Total impurities ([2]; Illumination, 10 d): 0.98%
Molecule: Cc1cc(Nc2ncc(Cl)c(Nc3ccccc3S(=O)(=O)C(C)C)n2)c(OC(C)C)cc1C1=CCN(C2CCOCC2)CC1 [one equivalent of succinate crystal form D]
